Key:
[1] = target: T1, Dihydrofolate reductase (Mus musculus, UniProt P00375); test: compound was evaluated for the inhibitory activity against Dihydrofolate reductase in permeabilised L1210 cells.; format: cell-based
T1 sequence (P00375 whole entry): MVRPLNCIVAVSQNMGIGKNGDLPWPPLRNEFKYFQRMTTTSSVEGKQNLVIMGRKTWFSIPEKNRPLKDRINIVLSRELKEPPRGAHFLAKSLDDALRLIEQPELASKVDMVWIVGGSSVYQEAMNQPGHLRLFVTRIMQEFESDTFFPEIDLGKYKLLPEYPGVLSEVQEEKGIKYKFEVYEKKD

[2] = test system: L1210; test: Compound was evaluated for the inhibition of L1210 murine leukemia cell growth.; format: functional, cell-based; details: Mus musculus
[3] = target: T2, Folylpolyglutamate synthase, mitochondrial (Homo sapiens, UniProt Q05932); test: Compound was evaluated for the inhibitory activity against Folyl-polyglutamate synthase from CCRF-CEM human leukemia cells.; format: cell-based
T2 sequence (Q05932 whole entry): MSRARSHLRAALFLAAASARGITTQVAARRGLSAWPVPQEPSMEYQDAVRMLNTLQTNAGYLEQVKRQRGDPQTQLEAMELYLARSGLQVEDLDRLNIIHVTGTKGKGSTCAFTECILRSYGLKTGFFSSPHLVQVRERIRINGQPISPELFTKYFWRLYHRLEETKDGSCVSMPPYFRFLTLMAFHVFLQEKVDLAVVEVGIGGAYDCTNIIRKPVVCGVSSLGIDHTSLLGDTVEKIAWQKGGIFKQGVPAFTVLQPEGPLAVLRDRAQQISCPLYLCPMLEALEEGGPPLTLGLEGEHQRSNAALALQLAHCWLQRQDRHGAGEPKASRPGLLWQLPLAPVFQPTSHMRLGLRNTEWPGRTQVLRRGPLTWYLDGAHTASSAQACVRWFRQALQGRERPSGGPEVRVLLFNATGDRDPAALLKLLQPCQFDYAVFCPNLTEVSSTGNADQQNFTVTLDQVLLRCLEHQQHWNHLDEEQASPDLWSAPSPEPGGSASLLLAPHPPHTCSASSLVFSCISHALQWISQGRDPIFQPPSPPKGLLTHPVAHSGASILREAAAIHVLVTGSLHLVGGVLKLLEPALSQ

[4] = test system: L1210; test: Compound was evaluated for the inhibition of L1210 murine leukemia cell growth.(In this study); details: Mus musculus
[5] = test system: L1210; test: Compound was evaluated for the inhibition of L1210 murine leukemia cell growth.(From ref 12b); details: Mus musculus

| IC50 [1] | IC50 [2] | IC50 [3] | IC50 [4] | IC50 [5] | SMILES |
| --- | --- | --- | --- | --- | --- |
| > 100000 nM | > 100000 nM | > 200000 nM | – | – | Nc1nc2ncc(CNc3ccc(C(=O)NC(Cc4cnc[nH]4)C(=O)O)cc3)nc2c(=O)[nH]1 (configuration not stated) |
| 1300 nM | 91 nM | > 200000 nM | – | – | CN(Cc1cnc2nc(N)nc(N)c2n1)c1ccc(C(=O)NC(Cc2cnc[nH]2)C(=O)O)cc1 (configuration not stated) |
| – | – | 3200 nM | 7 nM | 1300 nM | CN(Cc1cnc2nc(N)nc(N)c2n1)c1ccc(C(=O)N[C@@H](CCC(=O)O)C(=O)O)cc1 [METHOTREXATE] |

| SMILES | IC50 [1] | IC50 [2] | IC50 [3] | IC50 [4] | IC50 [5] |
| --- | --- | --- | --- | --- | --- |
| CN(Cc1cnc2nc(N)nc(N)c2n1)c1ccc(C(=O)NC(Cc2cn(CC(=O)O)cn2)C(=O)O)cc1 (configuration not stated) | 370 nM | 150 nM | > 200000 nM | – | – |

Source: ChEMBL document CHEMBL1129374 (J Med Chem, 1996)
